Experimental data taken from patent publication US20100075370A1, “METHOD FOR DETERMINATION OF CELL VIABILITY BY USING FLOW CYTOMETRY WITH FIXED VOLUME ACQUISITION” (TUMORTEC GMBH, priority 2006, published 2010).

System: pBMC from patients with CLL
Assay: Cytotoxicity of several antineoplastic agents on pBMC (LC90), fixed volume flow cytometry
Type: cell-based, human
Conditions: in µg/mL
From the text: The necessary peripheral blood (PB) samples from adult patients diagnosed with chronic lymphatic leukaemia (CLL) were collected into heparin during routine diagnosis prior to administration of chemotherapy.

[1] = pBMC of CLL patient #1, ex vivo
[2] = pBMC of CLL patient #2, ex vivo
[3] = pBMC of CLL patient #3, ex vivo
[4] = pBMC of CLL patient #4, ex vivo
[5] = pBMC of CLL patient #5, ex vivo
[6] = pBMC of CLL patient #6, ex vivo
[7] = pBMC of CLL patient #7, ex vivo
[8] = pBMC of CLL patient #8, ex vivo
[9] = pBMC of CLL patient #9, ex vivo
[10] = pBMC of CLL patient #10, ex vivo
[11] = pBMC of CLL patient #11, ex vivo
[12] = pBMC of CLL patient #12, ex vivo
[13] = pBMC of CLL patient #13, ex vivo
[14] = pBMC of CLL patient #14, ex vivo
[15] = pBMC of CLL patient #15, ex vivo
[16] = pBMC of CLL patient #16, ex vivo
[17] = pBMC of CLL patient #17, ex vivo
[18] = pBMC of CLL patient #18, ex vivo
[19] = pBMC of CLL patient #19, ex vivo
[20] = pBMC of CLL patient #20, ex vivo
[21] = pBMC of CLL patient #21, ex vivo
[22] = pBMC of CLL patient #22, ex vivo
[23] = pBMC of CLL patient #23, ex vivo
[24] = pBMC of CLL patient #24, ex vivo
[25] = pBMC of CLL patient #25, ex vivo

Row | SMILES | LC90 [1] | LC90 [2] | LC90 [3] | LC90 [4] | LC90 [5] | LC90 [6] | LC90 [7] | LC90 [8] | LC90 [9] | LC90 [10] | LC90 [11] | LC90 [12] | LC90 [13] | LC90 [14] | LC90 [15] | LC90 [16] | LC90 [17] | LC90 [18] | LC90 [19] | LC90 [20] | also measured
1 | Nc1nc(Cl)nc2c1ncn2[C@H]1C[C@H](O)[C@@H](CO)O1 [Cladribine ®, Cladribine] | 0.185 | 0.184 | 0.159 | 0.107 | 0.083 | 0.080 | 0.063 | 0.059 | 0.052 | 0.048 | 0.047 | 0.040 | 0.029 | 0.027 | 0.024 | 0.017 | 0.015 | 0.013 | 0.007 | 0.006 | LC90 [21]: 0.005; LC90 [22]: 0.004; LC90 [23]: 0.000; LC90 [24]: 8.100; LC90 [25]: 1.967
2 | O=C1c2c(O)ccc(O)c2C(=O)c2c(NCCNCCO)ccc(NCCNCCO)c21 [Novantrone ®, Mitoxantrone] | 0.06 | 0.03 | 0.19 | 0.15 | 0.11 | 13.37 | 0.14 | 0.02 | 0.10 | 0.05 | 12.80 | 0.06 | 0.40 | 0.09 | 0.05 | 0.01 | 0.03 | 0.08 | 0.07 | 0.02 | LC90 [21]: 0.05; LC90 [22]: 0.05; LC90 [23]: 0.01; LC90 [24]: 12.77; LC90 [25]: 0.17
3 | CC[C@]1(O)C[C@H]2CN(CCc3c([nH]c4ccccc34)[C@@](C(=O)OC)(c3cc4c(cc3OC)N(C=O)[C@H]3[C@@](O)(C(=O)OC)[C@H](OC(C)=O)[C@]5(CC)C=CCN6CC[C@]43[C@@H]65)C2)C1 [Oncovin ®, Vincristin] | 2.51 | 0.47 | 0.14 | 10.96 | 0.33 | 0.07 | 0.88 | 10.23 | 0.47 | 0.41 | 0.21 | 0.97 | 0.24 | 0.04 | 0.44 | 0.13 | 0.41 | 0.70 | 0.10 | 0.42 | LC90 [21]: 0.10; LC90 [22]: 0.30; LC90 [23]: 0.08; LC90 [24]: 61.57; LC90 [25]: 0.23
4 | C[C@]12C=CC(=O)C=C1CC[C@@H]1[C@@H]2[C@@H](O)C[C@@]2(C)[C@H]1CC[C@]2(O)C(=O)CO [Prednisolone ®, Prednisolone] | 40.69 | 21.96 | 12.17 | 2.25 | 12.67 | 0.88 | 35.35 | 29.81 | 33.00 | 11.71 | 0.46 | 0.86 | 2.56 | 0.56 | 0.82 | 0.19 | 35.69 | 0.51 | 0.98 | 99.92 | LC90 [21]: 0.54; LC90 [22]: 12.76; LC90 [23]: 0.82; LC90 [24]: 48.18; LC90 [25]: 0.48
